Tests used:
[1] = Comparative stability test (solid kept at 80° C. for three days, light-shaded and airtight; remaining substance by HPLC); assay type: physicochemical; settings: for Remaining ratio(%) after 3 days at 80° C.: 10 mg solid sample, thermostat at 80° C., three days, light-shaded and airtight, HPLC; for storage stability (result in words): left at 80° C. for three days
Method: The crystalline Na salt of the invention (described in Example 9) was subjected to a comparative stability test. In the test, the Na salt was left at 80° C. for three days together with both the substance obtained by condensing the solution to dryness and the product collected by filtration and left at room temperature after recrystallization.
The crystalline K salt of the invention (described in Example 11) was subjected to a stability test in which the K salt was left at 80° C. for three days.
mobile phase: a mixture of 0.1 mol/L sodium dihydrogen phosphate reagent (pH: 3.0)/acetonitrile (5:2),
flow rate; controlled so that the retention time of (2S,3S)-3-[[(1S)-1-isobutoxymethyl-3-methylbutyl]-carbamoyl]oxirane-2-carboxylic acid would be approx. 13 minutes, and
As a sample, 10 mg of sodium or potassium (2S,3S)-3-[[(1S)-1-isobutoxymethyl-3-methylbutyl]carbamoyl]oxirane-2-carboxylate was weighed and placed in a test tube. After the sample was kept in a thermostat at 80° C. for three days under a light-shaded and airtight condition, the amount of remaining substance was measured by HPLC.
The same as those in Example 14.

[2] = tested on: cathepsin; settings: background statement; cited from earlier work

Compound: CC(C)COC[C@H](CC(C)C)NC(=O)[C@H]1O[C@@H]1C(=O)[O-].[Na+] [Na salt (obtained through recrystallization and drying in ai] [sodium (2S,3S)-3-[[(1S)-1-isobutoxymethyl-3-methylbutyl]carbamoyl]oxirane-2-carboxylate, reference compound]
- Remaining ratio(%) after 3 days at 80° C. [1]: 38-77%

Compound: CC(C)COC[C@H](CC(C)C)NC(=O)[C@H]1O[C@@H]1C(=O)[O-].[K+] [K salt (obtained in Example 11), potassium (2S,3S)-3-[[(1S)-1-isobutoxymethyl-3-methylbutyl]carbamoyl]oxirane-2-carboxylate]
- Remaining ratio(%) after 3 days at 80° C. [1]: 99.9%
- storage stability (result in words) [1]: excellent in storage stability

Compound: CC(C)COC[C@H](CC(C)C)NC(=O)[C@H]1O[C@@H]1C(=O)[O-].[Na+] [Compound A, sodium (2S,3S)-3-[[(1S)-1-isobutoxymethyl-3-methylbutyl]carbamoyl]-oxirane-2-carboxylate]
- cathepsin-inhibitory action [2]: shows a cathepsin-inhibitory action

Compound: CC(C)COC[C@H](CC(C)C)NC(=O)[C@H]1O[C@@H]1C(=O)[O-].[Na+] [Na salt (obtained according to the conventional process)] [sodium (2S,3S)-3-[[(1S)-1-isobutoxymethyl-3-methylbutyl]carbamoyl]oxirane-2-carboxylate, reference compound]
- Remaining ratio(%) after 3 days at 80° C. [1]: 13-77%

Compound: CC(C)COC[C@H](CC(C)C)NC(=O)[C@H]1O[C@@H]1C(=O)[O-].[Na+] [Na salt (obtained in Example 9), sodium (2S,3S)-3-[[(1S)-1-isobutoxymethyl-3-methylbutyl]carbamoyl]oxirane-2-carboxylate]
- Remaining ratio(%) after 3 days at 80° C. [1]: 95-98%
- storage stability (result in words) [1]: superior to the substances for comparison in storage stability
